Publication PMC5218480 (PLoS ONE, 2017)

Test system: MV-4-11 cells
Assay: Gene expression microarray analysis (Affymetrix PrimeView) and GSEA
Assay type: cell-based, human
Set-up: RFU PODN (11730768_x_at) / Fold change /veh PODN (11730768_x_at) / RFU LINC00158 (11744669_a_at) / Fold change /veh LINC00158 (11744669_a_at) / RFU DUSP10 (11751237_a_at) / Fold change /veh DUSP10 (11751237_a_at) / RFU ID3 (11757404_x_at) / Fold change /veh ID3 (11757404_x_at) / RFU PLEKHG5 (11737974_s_at) / Fold change /veh PLEKHG5 (11737974_s_at) / RFU LRRC4B (11730491_at) / Fold change /veh LRRC4B (11730491_at) / RFU GIMAP4 (11747438_a_at) / Fold change /veh GIMAP4 (11747438_a_at) / RFU KRT8 (11758183_x_at) / Fold change /veh KRT8 (11758183_x_at) / RFU CNN1 (11734310_a_at) / Fold change /veh CNN1 (11734310_a_at) / RFU VPS37D (11726825_at) / Fold change /veh VPS37D (11726825_at) / RFU C10orf10 (11716522_x_at) / Fold change /veh C10orf10 (11716522_x_at) / RFU KIR2DL2 /// KIR2DL4 /// KIR2DL5A /// KIR2DL5B /// KIR2DS1 /// KIR2DS2 /// KIR2DS3 /// KIR2DS4 /// KIR3DL3 /// KIR3DL3 /// KIR3DS1 (11738374_at) / Fold change /veh KIR2DL2 /// KIR2DL4 /// KIR2DL5A /// KIR2DL5B /// KIR2DS1 /// KIR2DS2 /// KIR2DS3 /// KIR2DS4 /// KIR3DL3 /// KIR3DL3 /// KIR3DS1 (11738374_at) / RFU C1QL1 (11718748_at) / Fold change /veh C1QL1 (11718748_at) / RFU TMPRSS4 (11747572_a_at) / Fold change /veh TMPRSS4 (11747572_a_at) / RFU HAMP (11756126_x_at) / Fold change /veh HAMP (11756126_x_at) / RFU RNFT2 (11725882_a_at) / Fold change /veh RNFT2 (11725882_a_at) / RFU NR4A2 (11747474_a_at) / Fold change /veh NR4A2 (11747474_a_at) / RFU ABCC12 (11746883_a_at) / Fold change /veh ABCC12 (11746883_a_at) / RFU TMEM136 (11760407_x_at) / Fold change /veh TMEM136 (11760407_x_at) / RFU CLDN22 /// WWC2 (11732394_at) / Fold change /veh CLDN22 /// WWC2 (11732394_at) / RFU HLA-DPB1 (11760878_x_at) / Fold change /veh HLA-DPB1 (11760878_x_at) / RFU SPINT1 (11716480_a_at) / Fold change /veh SPINT1 (11716480_a_at) / RFU GAP43 (11754022_s_at) / Fold change /veh GAP43 (11754022_s_at) / RFU A4GNT (11735810_at) / Fold change /veh A4GNT (11735810_at) / RFU PRB3 (11715151_x_at) / Fold change /veh PRB3 (11715151_x_at) / RFU TUBB4B (11761932_at) / Fold change /veh TUBB4B (11761932_at) / RFU CAPN14 (11732068_a_at) / Fold change /veh CAPN14 (11732068_a_at) / RFU TMCC2 (11721928_a_at) / Fold change /veh TMCC2 (11721928_a_at) / RFU IRGQ (11745062_a_at) / Fold change /veh IRGQ (11745062_a_at) / RFU FAM174B (11720279_a_at) / Fold change /veh FAM174B (11720279_a_at) / RFU TMPRSS4 (11748680_a_at) / Fold change /veh TMPRSS4 (11748680_a_at) / RFU FAM212B (11763350_a_at) / Fold change /veh FAM212B (11763350_a_at) / RFU PLEKHG5 (11743358_a_at) / Fold change /veh PLEKHG5 (11743358_a_at) / RFU ZSCAN30 (11745921_a_at) / Fold change /veh ZSCAN30 (11745921_a_at) / RFU CMKLR1 (11741424_a_at) / Fold change /veh CMKLR1 (11741424_a_at) / RFU LOC101060620 /// MAPK8IP1 (11723275_at) / Fold change /veh LOC101060620 /// MAPK8IP1 (11723275_at) / RFU SPTSSB (11747773_x_at) / Fold change /veh SPTSSB (11747773_x_at) / RFU PRSS12 (11739890_at) / Fold change /veh PRSS12 (11739890_at) / RFU BIN1 (11741810_x_at) / Fold change /veh BIN1 (11741810_x_at) / RFU WNT11 (11732464_a_at) / Fold change /veh WNT11 (11732464_a_at) / RFU C10orf10 (11716521_a_at) / Fold change /veh C10orf10 (11716521_a_at) / RFU C5orf56 (11738089_at) / Fold change /veh C5orf56 (11738089_at) / RFU CYB561 (11721691_x_at) / Fold change /veh CYB561 (11721691_x_at) / RFU ANKRD19P (11752326_a_at) / Fold change /veh ANKRD19P (11752326_a_at) / RFU OR2T12 /// OR2T33 /// OR2T8 (11738714_s_at) / Fold change /veh OR2T12 /// OR2T33 /// OR2T8 (11738714_s_at) / RFU VCAN (11748164_a_at) / Fold change /veh VCAN (11748164_a_at) / RFU JSRP1 (11732532_at) / Fold change /veh JSRP1 (11732532_at) / RFU KRTAP10-11 (11738290_x_at) / Fold change /veh KRTAP10-11 (11738290_x_at) / RFU MYO3A (11730013_a_at) / Fold change /veh MYO3A (11730013_a_at) / RFU EBF3 (11725865_a_at) / Fold change /veh EBF3 (11725865_a_at) / RFU CAMK2N1 (11719241_x_at) / Fold change /veh CAMK2N1 (11719241_x_at) / RFU C5orf56 (11738088_a_at) / Fold change /veh C5orf56 (11738088_a_at) / RFU OLFML3 (11715873_a_at) / Fold change /veh OLFML3 (11715873_a_at) / RFU LOC100653217 /// NTM (11731650_a_at) / Fold change /veh LOC100653217 /// NTM (11731650_a_at) / RFU MAPK11 (11762145_a_at) / Fold change /veh MAPK11 (11762145_a_at) / RFU FIZ1 (11724087_x_at) / Fold change /veh FIZ1 (11724087_x_at) / RFU OASL (11726364_x_at) / Fold change /veh OASL (11726364_x_at) / RFU SOX15 (11748057_x_at) / Fold change /veh SOX15 (11748057_x_at) / RFU CD79A (11719716_a_at) / Fold change /veh CD79A (11719716_a_at) / RFU HIST1H1D (11736915_at) / Fold change /veh HIST1H1D (11736915_at) / RFU CASKIN2 (11723855_a_at) / Fold change /veh CASKIN2 (11723855_a_at) / RFU LOC730098 (11760151_x_at) / Fold change /veh LOC730098 (11760151_x_at) / RFU OR4N2 (11742367_at) / Fold change /veh OR4N2 (11742367_at) / RFU PRRT2 (11749266_a_at) / Fold change /veh PRRT2 (11749266_a_at) / RFU SNX32 (11753110_a_at) / Fold change /veh SNX32 (11753110_a_at) / RFU CDHR5 (11726645_a_at) / Fold change /veh CDHR5 (11726645_a_at) / RFU RCAN1 (11760418_a_at) / Fold change /veh RCAN1 (11760418_a_at) / RFU FAM167A (11723789_a_at) / Fold change /veh FAM167A (11723789_a_at) / RFU FAM26E (11764081_at) / Fold change /veh FAM26E (11764081_at) / RFU ISYNA1 (11749810_s_at) / Fold change /veh ISYNA1 (11749810_s_at) / RFU ACY1 (11761880_at) / Fold change /veh ACY1 (11761880_at) / RFU 11764098_at / Fold change /veh 11764098_at / RFU SAMD14 (11745864_x_at) / Fold change /veh SAMD14 (11745864_x_at) / RFU NPB (11741838_a_at) / Fold change /veh NPB (11741838_a_at) / RFU TMPRSS6 (11731388_a_at) / Fold change /veh TMPRSS6 (11731388_a_at) / RFU KRTAP10-2 (11738614_at) / Fold change /veh KRTAP10-2 (11738614_at) / RFU ARHGAP8 /// PRR5-ARHGAP8 (11727945_x_at) / Fold change /veh ARHGAP8 /// PRR5-ARHGAP8 (11727945_x_at) / RFU KRTAP5-7 /// NADSYN1 (11734609_at) / Fold change /veh KRTAP5-7 /// NADSYN1 (11734609_at) / RFU RASL12 (11751679_a_at) / Fold change /veh RASL12 (11751679_a_at) / RFU CDKN2B (11736163_a_at) / Fold change /veh CDKN2B (11736163_a_at) / RFU PRF1 (11729649_at) / Fold change /veh PRF1 (11729649_at) / RFU, ZNF638 /// ZNF638-IT1 / Fold change vs veh, ZNF638 /// ZNF638-IT1 / RFU, PANK3 / Fold change vs veh, PANK3 / RFU, SH3YL1 / Fold change vs veh, SH3YL1 / RFU, ZEB2 / Fold change vs veh, ZEB2 / RFU, NRIP1 / Fold change vs veh, NRIP1 / RFU, PTTG1IP / Fold change vs veh, PTTG1IP / RFU, CAPN2 / Fold change vs veh, CAPN2 / RFU, MED14 / Fold change vs veh, MED14 / RFU, SNORA58 / Fold change vs veh, SNORA58 / RFU, C1orf63 / Fold change vs veh, C1orf63 / RFU, LRRFIP1 / Fold change vs veh, LRRFIP1 / RFU, NDUFAF7 / Fold change vs veh, NDUFAF7 / RFU, SLC12A2 / Fold change vs veh, SLC12A2 / RFU, IBTK / Fold change vs veh, IBTK / RFU, ESF1 / Fold change vs veh, ESF1 / Fold change vs veh, TMEM50B / RFU, TAOK1 / Fold change vs veh, TAOK1 / RFU, ACBD3 / Fold change vs veh, ACBD3 / RFU, TMA16 / Fold change vs veh, TMA16 / RFU, RWDD3 / Fold change vs veh, RWDD3 / RFU, BCAT1 / Fold change vs veh, BCAT1 / RFU, EDEM3 / Fold change vs veh, EDEM3 / RFU, TMEM33 / Fold change vs veh, TMEM33 / RFU, WDR75 / Fold change vs veh, WDR75 / RFU, AHCTF1 / Fold change vs veh, AHCTF1 / RFU, TFRC / Fold change vs veh, TFRC / RFU, ZDHHC17 / Fold change vs veh, ZDHHC17 / RFU, NOM1 / Fold change vs veh, NOM1 / RFU, ARL8B / Fold change vs veh, ARL8B / RFU, ZBTB11 / Fold change vs veh, ZBTB11 / RFU, TAMM41 / Fold change vs veh, TAMM41 / RFU, KIAA1704 /// LOC100996395 / Fold change vs veh, KIAA1704 /// LOC100996395 / RFU, ING1 / Fold change vs veh, ING1 / RFU, TRMT61B / Fold change vs veh, TRMT61B / RFU, FUBP3 / Fold change vs veh, FUBP3 / RFU, TP53 / Fold change vs veh, TP53 / RFU, TNKS2 / Fold change vs veh, TNKS2 / RFU, ZFP14 / Fold change vs veh, ZFP14 / RFU, ACTR2 / Fold change vs veh, ACTR2 / RFU, PPP3R1 / Fold change vs veh, PPP3R1 / RFU, PIK3R1 / Fold change vs veh, PIK3R1 / RFU, HNRNPA1 / Fold change vs veh, HNRNPA1 / RFU, RNF170 / Fold change vs veh, RNF170 / RFU, ZNF28 / Fold change vs veh, ZNF28 / RFU, RNGTT / Fold change vs veh, RNGTT / RFU, OGT / Fold change vs veh, OGT / RFU, BRD1 / Fold change vs veh, BRD1 / RFU, MARS / Fold change vs veh, MARS / RFU, ZNF655 / Fold change vs veh, ZNF655 / RFU, FAHD1 / Fold change vs veh, FAHD1 / RFU, BDP1 / Fold change vs veh, BDP1 / RFU, LRRCC1 / Fold change vs veh, LRRCC1 / RFU, ARID1A / Fold change vs veh, ARID1A / RFU, ZNF146 / Fold change vs veh, ZNF146 / RFU, ZNF330 / Fold change vs veh, ZNF330 / RFU, GPN3 / Fold change vs veh, GPN3 / RFU, C9orf123 / Fold change vs veh, C9orf123 / RFU, N4BP2L2 / Fold change vs veh, N4BP2L2 / RFU, ARFIP1 / Fold change vs veh, ARFIP1 / RFU, FAM179B / Fold change vs veh, FAM179B / RFU, BCL10 / Fold change vs veh, BCL10 / RFU, UHRF1BP1L / Fold change vs veh, UHRF1BP1L / RFU, BET1 / Fold change vs veh, BET1 / RFU, CNOT2 / Fold change vs veh, CNOT2 / RFU, ZNF268 / Fold change vs veh, ZNF268 / Fold change vs veh, ZNF507 / RFU, DGCR2 / Fold change vs veh, DGCR2 / RFU, WDSUB1 / Fold change vs veh, WDSUB1 / Fold change vs veh, HSP90B1 /// MIR3652 / RFU, ADSS / Fold change vs veh, ADSS / RFU, GK / Fold change vs veh, GK / RFU, ZNF148 / Fold change vs veh, ZNF148 / RFU, TAF9 / Fold change vs veh, TAF9 / RFU, SLC1A5 / Fold change vs veh, SLC1A5 / RFU, SLMO2 / Fold change vs veh, SLMO2 / RFU, ABCC4 / Fold change vs veh, ABCC4 / RFU, LOC101060439 /// RAP1B / Fold change vs veh, LOC101060439 /// RAP1B / RFU, RFX7 / Fold change vs veh, RFX7 / RFU, GTPBP10 / Fold change vs veh, GTPBP10 / RFU, CNEP1R1 / Fold change vs veh, CNEP1R1 / RFU, BIVM-ERCC5 /// ERCC5 / Fold change vs veh, BIVM-ERCC5 /// ERCC5 / RFU, ILF3 / Fold change vs veh, ILF3 / RFU 11762660_at / Fold change /veh 11762660_at / RFU VCAN (11757783_s_at) / Fold change /veh VCAN (11757783_s_at) / RFU DDX43 (11728927_at) / Fold change /veh DDX43 (11728927_at) / RFU KRT8 (11758188_x_at) / Fold change /veh KRT8 (11758188_x_at) / RFU NKD1 (11759106_at) / Fold change /veh NKD1 (11759106_at) / RFU SRD5A1 (11742802_a_at) / Fold change /veh SRD5A1 (11742802_a_at) / RFU TPSAB1 /// TPSB2 (11721975_s_at) / Fold change /veh TPSAB1 /// TPSB2 (11721975_s_at) / RFU GSTM3 (11746129_a_at) / Fold change /veh GSTM3 (11746129_a_at) / RFU IL23R (11737362_x_at) / Fold change /veh IL23R (11737362_x_at) / RFU TMEM51 (11727254_a_at) / Fold change /veh TMEM51 (11727254_a_at) / RFU PIWIL2 (11732686_x_at) / Fold change /veh PIWIL2 (11732686_x_at) / RFU ORM1 (11744905_x_at) / Fold change /veh ORM1 (11744905_x_at) / RFU CCDC152 (11743942_at) / Fold change /veh CCDC152 (11743942_at) / RFU ECM1 (11717891_a_at) / Fold change /veh ECM1 (11717891_a_at) / RFU IL23R (11748794_a_at) / Fold change /veh IL23R (11748794_a_at) / RFU TNFAIP8L3 (11732012_x_at) / Fold change /veh TNFAIP8L3 (11732012_x_at) / RFU MBOAT4 (11741988_at) / Fold change /veh MBOAT4 (11741988_at) / RFU 11764193_at / Fold change /veh 11764193_at / RFU TMEM53 (11763286_at) / Fold change /veh TMEM53 (11763286_at) / RFU MAGEB2 (11727129_at) / Fold change /veh MAGEB2 (11727129_at) / RFU TMEM200A (11744735_a_at) / Fold change /veh TMEM200A (11744735_a_at) / RFU CCDC152 (11751479_a_at) / Fold change /veh CCDC152 (11751479_a_at) / RFU FAM211A (11726209_a_at) / Fold change /veh FAM211A (11726209_a_at) / RFU RGS16 (11746705_a_at) / Fold change /veh RGS16 (11746705_a_at) / RFU VCAN (11755009_s_at) / Fold change /veh VCAN (11755009_s_at) / RFU RHOB (11743442_s_at) / Fold change /veh RHOB (11743442_s_at) / RFU RGS16 (11720943_a_at) / Fold change /veh RGS16 (11720943_a_at) / RFU RGS16 (11720944_at) / Fold change /veh RGS16 (11720944_at) / RFU, VPS4B / Fold change vs veh, VPS4B / RFU, CREB1 / Fold change vs veh, CREB1 / RFU, DNAJC13 / Fold change vs veh, DNAJC13 / RFU, GNAQ / Fold change vs veh, GNAQ / RFU, CDK5R1 / Fold change vs veh, CDK5R1 / RFU, ZRANB3 / Fold change vs veh, ZRANB3 / RFU, CUL4A / Fold change vs veh, CUL4A / RFU, CCNY / Fold change vs veh, CCNY / RFU, UFL1 / Fold change vs veh, UFL1 / RFU, COG3 / Fold change vs veh, COG3 / RFU, DIAPH2 / Fold change vs veh, DIAPH2 / RFU, SKA2 / Fold change vs veh, SKA2 / RFU, AFF3 / Fold change vs veh, AFF3 / RFU, LMF1 / Fold change vs veh, LMF1 / RFU, IPO11 / Fold change vs veh, IPO11 / RFU, DFFB / Fold change vs veh, DFFB / RFU, FOXP1 / Fold change vs veh, FOXP1 / RFU, CARD8 / Fold change vs veh, CARD8 / RFU, STRN3 / Fold change vs veh, STRN3 / RFU, ADK / Fold change vs veh, ADK / RFU, RASSF2 / Fold change vs veh, RASSF2 / RFU, WIPF1 / Fold change vs veh, WIPF1 / RFU, LARP1B / Fold change vs veh, LARP1B / RFU, RASA1 / Fold change vs veh, RASA1 / RFU, RB1 / Fold change vs veh, RB1 / RFU, PPFIA1 / Fold change vs veh, PPFIA1 / RFU, MAT2A / Fold change vs veh, MAT2A / RFU, CCT5 / Fold change vs veh, CCT5 / RFU, WDR92 / Fold change vs veh, WDR92 / RFU, CUX1 / Fold change vs veh, CUX1 / RFU, TTC7A / Fold change vs veh, TTC7A / RFU, TMEM135 / Fold change vs veh, TMEM135 / RFU, DEPTOR / Fold change vs veh, DEPTOR / RFU, CPM / Fold change vs veh, CPM / RFU, DNAJB6 / Fold change vs veh, DNAJB6 / RFU, CACNA2D3 / Fold change vs veh, CACNA2D3 / RFU, DTX4 / Fold change vs veh, DTX4 / RFU, TFCP2 / Fold change vs veh, TFCP2 / RFU, GMCL1 /// GMCL1P1 / Fold change vs veh, GMCL1 /// GMCL1P1 / RFU, AEBP2 / Fold change vs veh, AEBP2 / RFU, SNHG1 /// SNORD22 /// SNORD25 /// SNORD26 /// SNORD27 /// SNORD28 /// SNORD29 /// SNORD31 / Fold change vs veh, SNHG1 /// SNORD22 /// SNORD25 /// SNORD26 /// SNORD27 /// SNORD28 /// SNORD29 /// SNORD31 / Fold change (Aza/veh), C12orf56 (ProbeSet 11735607_a_at) / Fold change (ACY-1035/veh), C12orf56 (ProbeSet 11735607_a_at) / Fold change (Aza/veh), FGFR1OP (ProbeSet 11751329_s_at) / Fold change (ACY-1035/veh), FGFR1OP (ProbeSet 11751329_s_at) / Fold change (Aza/veh), VPS36 (ProbeSet 11739960_a_at) / Fold change (ACY-1035/veh), VPS36 (ProbeSet 11739960_a_at) / RFU SYPL1 (11715823_x_at) / Fold change /veh SYPL1 (11715823_x_at) / RFU IGFBP7 (11715501_s_at) / Fold change /veh IGFBP7 (11715501_s_at) / RFU REEP3 (11722064_at) / Fold change /veh REEP3 (11722064_at) / RFU IGLL1 (11728026_x_at) / Fold change /veh IGLL1 (11728026_x_at): dose or concentration left out as unconfirmed
Settings: ProbeSet 11749551_a_at; LIST B

Structure (SMILES): Nc1ncn([C@@H]2O[C@H](CO)[C@@H](O)[C@H]2O)c(=O)n1 [azacitidine]
- Fold change vs veh, RNGTT: 1.02
